Data: ChEMBL document CHEMBL4680060, “Polybasic peptide-levofloxacin conjugates potentiate fluoroquinolones and other classes of antibiotics against multidrug-resistant Gram-negative bacteria” (Medchemcomm, 2019)
Active and inactive are the calls of the source.

How the values were obtained:
[1] = tested on: Staphylococcus epidermidis; assay: Antibacterial activity against methicillin-susceptible Staphylococcus epidermidis clinical isolate CANWARD-2008 81388 assessed as inhibition of visible growth incubated for 18 hrs by CLSI protocol based microbroth dilution method; assay type: functional
Pseudomonas aeruginosa [2] = assay: Additive antibacterial activity against MexAB-OprM, MexCD-OprJ, MexEF-OprN, MexJK and MexXY efflux pumps deficient Pseudomonas aeruginosa PAO750 in presence of moxifloxacin by Checkerboard assay; assay type: functional, organism-based
Staphylococcus aureus [3] = assay: Antibacterial activity against methicillin-resistant Staphylococcus aureus ATCC 33592 assessed as inhibition of visible growth incubated for 18 hrs by CLSI protocol based microbroth dilution method; assay type: functional
Pseudomonas aeruginosa [4] = assay: Potentiation of minocycline-induced antibacterial activity against wild type Pseudomonas aeruginosa PAO1 measured after 18 hrs by CLSI protocol based microbroth dilution method; assay type: functional, organism-based
Pseudomonas aeruginosa [5] = assay: Potentiation of levofloxacin-induced antibacterial activity against wild type Pseudomonas aeruginosa PAO1 assessed as […] measured after 18 hrs by CLSI protocol based microbroth dilution method relative to levofloxacin MIC; assay type: functional
Acinetobacter baumannii [6] = assay: Synergistic antibacterial activity against Acinetobacter baumannii ATCC 17978 in presence of levofloxacin by Checkerboard assay; assay type: functional, organism-based
Acinetobacter baumannii [7] = assay: Synergistic antibacterial activity against Acinetobacter baumannii ATCC 17978 in presence of ciprofloxacin by Checkerboard assay; assay type: functional, organism-based
Pseudomonas aeruginosa [8] = assay: Potentiation of fosfomycin-induced antibacterial activity against wild type Pseudomonas aeruginosa PAO1 measured after 18 hrs by CLSI protocol based microbroth dilution method; assay type: functional, organism-based
Pseudomonas aeruginosa [9] = assay: Synergistic antibacterial activity against multidrug resistant Pseudomonas aeruginosa PA264 in presence of levofloxacin by Checkerboard assay; assay type: functional, organism-based
Escherichia coli [10] = assay: Additive antibacterial activity against Escherichia coli ATCC 25922 in presence of ciprofloxacin by Checkerboard assay; assay type: functional, organism-based
Pseudomonas aeruginosa [11] = assay: Synergistic antibacterial activity against wild type Pseudomonas aeruginosa PAO1 in presence of ciprofloxacin by Checkerboard assay; assay type: functional, organism-based
Klebsiella pneumoniae [12] = assay: Antibacterial activity against Klebsiella pneumoniae 116381 assessed as inhibition of visible growth incubated for 18 hrs by CLSI protocol based microbroth dilution method; assay type: functional
Pseudomonas aeruginosa [13] = assay: Potentiation of novobiocin-induced antibacterial activity against wild type Pseudomonas aeruginosa PAO1 measured after 18 hrs by CLSI protocol based microbroth dilution method; assay type: functional, organism-based
Pseudomonas aeruginosa [14] = assay: Potentiation of ciprofloxacin-induced antibacterial activity against wild type Pseudomonas aeruginosa PAO1 assessed as ciprofloxacin MIC measured after 18 hrs by CLSI protocol based microbroth dilution method (reference value: 0.125 ug/ml); assay type: functional
Escherichia coli [15] = assay: Additive antibacterial activity against Escherichia coli 107115 in presence of ciprofloxacin by Checkerboard assay; assay type: functional, organism-based
Pseudomonas aeruginosa [16] = assay: Additive antibacterial activity against MexAB-OprM, MexCD-OprJ, MexEF-OprN, MexJK and MexXY efflux pumps deficient Pseudomonas aeruginosa PAO750 in presence of levofloxacin by Checkerboard assay; assay type: functional, organism-based
Pseudomonas aeruginosa [17] = assay: Additive antibacterial activity against MexAB-OprM efflux pump deficient Pseudomonas aeruginosa PAO200 in presence of levofloxacin by Checkerboard assay; assay type: functional, organism-based
Pseudomonas aeruginosa [18] = assay: Potentiation of aztreonam-induced antibacterial activity against wild type Pseudomonas aeruginosa PAO1 measured after 18 hrs by CLSI protocol based microbroth dilution method; assay type: functional, organism-based
Escherichia coli [19] = assay: Antibacterial activity against Escherichia coli ATCC 25922 assessed as inhibition of visible growth incubated for 18 hrs by CLSI protocol based microbroth dilution method; assay type: functional
Escherichia coli [20] = assay: Synergistic antibacterial activity against Escherichia coli 107115 in presence of levofloxacin by Checkerboard assay; assay type: functional, organism-based
Pseudomonas aeruginosa [21] = assay: Synergistic antibacterial activity against multidrug resistant Pseudomonas aeruginosa PA260 in presence of levofloxacin by Checkerboard assay; assay type: functional, organism-based
Klebsiella pneumoniae [22] = assay: Synergistic antibacterial activity against Klebsiella pneumoniae 116381 in presence of moxifloxacin by Checkerboard assay; assay type: functional, organism-based
Escherichia coli [23] = assay: Synergistic antibacterial activity against Escherichia coli ATCC 25922 in presence of moxifloxacin by Checkerboard assay; assay type: functional, organism-based
Pseudomonas aeruginosa [24] = assay: Synergistic antibacterial activity against wild type Pseudomonas aeruginosa PAO1 in presence of levofloxacin by Checkerboard assay; assay type: functional, organism-based
Escherichia coli [25] = assay: Additive antibacterial activity against Escherichia coli 94474 in presence of ciprofloxacin by Checkerboard assay; assay type: functional, organism-based
Acinetobacter baumannii [26] = assay: Synergistic antibacterial activity against multidrug resistant Acinetobacter baumannii AB027 assessed as fractional inhibitory concentration index in presence of levofloxacin by Checkerboard assay; assay type: functional
Pseudomonas aeruginosa [27] = assay: Potentiation of ciprofloxacin-induced antibacterial activity against wild type Pseudomonas aeruginosa PAO1 assessed as fold reduction in ciprofloxacin MIC measured after 18 hrs by CLSI protocol based microbroth dilution method relative to ciprofloxacin MIC; assay type: functional
Pseudomonas aeruginosa [28] = assay: Synergistic antibacterial activity against multidrug resistant Pseudomonas aeruginosa PA101885 in presence of ciprofloxacin by Checkerboard assay; assay type: functional, organism-based
Pseudomonas aeruginosa [29] = assay: Additive antibacterial activity against MexAB-OprM efflux pump deficient Pseudomonas aeruginosa PAO200 in presence of ciprofloxacin by Checkerboard assay; assay type: functional, organism-based
Escherichia coli [30] = assay: Synergistic antibacterial activity against Escherichia coli 94393 in presence of levofloxacin by Checkerboard assay; assay type: functional, organism-based
Staphylococcus aureus [31] = assay: Antibacterial activity against Staphylococcus aureus ATCC 29213 assessed as inhibition of visible growth incubated for 18 hrs by CLSI protocol based microbroth dilution method; assay type: functional
Pseudomonas aeruginosa [32] = assay: Additive antibacterial activity against MexAB-OprM, MexCD-OprJ, MexEF-OprN, MexJK and MexXY efflux pumps deficient Pseudomonas aeruginosa PAO750 in presence of ciprofloxacin by Checkerboard assay; assay type: functional, organism-based
Acinetobacter baumannii [33] = assay: Antibacterial activity against Acinetobacter baumannii clinical isolate CAN-ICU 63169 assessed as inhibition of visible growth incubated for 18 hrs by CLSI protocol based microbroth dilution method; assay type: functional
Staphylococcus aureus [34] = assay: Antibacterial activity against methicillin-resistant Staphylococcus aureus clinical isolate CAN-ICU 61589 assessed as inhibition of visible growth incubated for 18 hrs by CLSI protocol based microbroth dilution method; assay type: functional
Acinetobacter baumannii [35] = assay: Synergistic antibacterial activity against multidrug resistant Acinetobacter baumannii AB027 assessed as fractional inhibitory concentration index in presence of moxifloxacin by Checkerboard assay; assay type: functional
Acinetobacter baumannii [36] = assay: Synergistic antibacterial activity against Acinetobacter baumannii ATCC 17978 in presence of moxifloxacin by Checkerboard assay; assay type: functional, organism-based
Klebsiella pneumoniae [37] = assay: Synergistic antibacterial activity against Klebsiella pneumoniae 116381 in presence of levofloxacin by Checkerboard assay; assay type: functional, organism-based
Pseudomonas aeruginosa [38] = assay: Synergistic antibacterial activity against multidrug resistant Pseudomonas aeruginosa PA100036 in presence of ciprofloxacin by Checkerboard assay; assay type: functional, organism-based
Pseudomonas aeruginosa [39] = assay: Synergistic antibacterial activity against multidrug resistant Pseudomonas aeruginosa PA262 in presence of ciprofloxacin by Checkerboard assay; assay type: functional, organism-based
Escherichia coli [40] = assay: Synergistic antibacterial activity against Escherichia coli 94393 in presence of moxifloxacin by Checkerboard assay; assay type: functional, organism-based
[41] = tested on: Stenotrophomonas maltophilia; assay: Antibacterial activity against Stenotrophomonas maltophilia clinical isolate CAN-ICU 62584 assessed as inhibition of visible growth incubated for 18 hrs by CLSI protocol based microbroth dilution method; assay type: functional
Pseudomonas aeruginosa [42] = assay: Synergistic antibacterial activity against wild type Pseudomonas aeruginosa PAO1 assessed as fractional inhibitory concentration index in presence of ciprofloxacin by Checkerboard assay; assay type: functional

C[C@H]1COc2c(N3CCN(C)CC3)c(F)cc3c(=O)c(C(=O)NCCCCCCCCCCCC(=O)N[C@@H](CCN)C(=O)N[C@@H](CCN)C(N)=O)cn1c23
128 µg/mL: MIC (Staphylococcus aureus [31]) | MIC (Staphylococcus aureus [34])
4: Ratio (Pseudomonas aeruginosa [5]) | Ratio (Pseudomonas aeruginosa [27])
0.313: fractional inhibitory concentration index (FICI) (Pseudomonas aeruginosa [42])
64 µg/mL: MIC [1] | MIC (Escherichia coli [19])
> 128 µg/mL: MIC (Staphylococcus aureus [3]) | MIC (Klebsiella pneumoniae [12]) | MIC (Acinetobacter baumannii [33]) | MIC [41]
0.031 µg/mL: MIC (Pseudomonas aeruginosa [14])
active: Activity (Pseudomonas aeruginosa [2]) | Activity (Pseudomonas aeruginosa [4]) | Activity (Pseudomonas aeruginosa [8]) | Activity (Pseudomonas aeruginosa [9]) | Activity (Escherichia coli [10]) | Activity (Pseudomonas aeruginosa [11]) | Activity (Pseudomonas aeruginosa [13]) | Activity (Escherichia coli [15]) | Activity (Pseudomonas aeruginosa [16]) | Activity (Pseudomonas aeruginosa [17]) | Activity (Escherichia coli [20]) | Activity (Pseudomonas aeruginosa [21]) | Activity (Klebsiella pneumoniae [22]) | Activity (Escherichia coli [23]) | Activity (Pseudomonas aeruginosa [24]) | Activity (Escherichia coli [25]) | Activity (Pseudomonas aeruginosa [28]) | Activity (Pseudomonas aeruginosa [29]) | Activity (Escherichia coli [30]) | Activity (Pseudomonas aeruginosa [32]) | Activity (Klebsiella pneumoniae [37]) | Activity (Pseudomonas aeruginosa [38]) | Activity (Pseudomonas aeruginosa [39]) | Activity (Escherichia coli [40])
inactive: Activity (Acinetobacter baumannii [6]) | Activity (Acinetobacter baumannii [7]) | Activity (Pseudomonas aeruginosa [18]) | Activity (Acinetobacter baumannii [36])
0.37: fractional inhibitory concentration index (FICI) (Acinetobacter baumannii [26]) | fractional inhibitory concentration index (FICI) (Acinetobacter baumannii [35])
